Data set [1] is described as follows: Quantification of lentinan in serum after oral administration (Fungitec G test). The class given is in vivo. To be noted: mice fed orally four times with 100 μg (total 400 μg) during 4 hr, serum 2 hr after last administration, mean ± SD. As to the method:
Formulations of 400 μg of lentinan dissolved in PBS or associated with liposomes were delivered orally in four doses to fasted mice over a period of 4 hrs. The level of lentinan in blood serum was measured 2 hr after the delivery using the Fungitec G test (Seikagaku Co., Inc.), according to the manufacturer's protocol. Background activity was determined by analyzing lentinan levels in sera of control mice.
We first investigated whether lentinan dissolved in PBS or associated with liposomes would penetrate through the epithelial barrier of the gut. Mice were fed with four doses of liposome-associated or unencapsulated lentinan (total concentration of 400 μg) over a 4-hr period. The level of lentinan in blood serum was analyzed 2 hr after lentinan administration.

The subject of data set [2] is splenocytes stimulated with rgp160.

In the case of Lentinan, the “Serum concentration of lentinan” value is listed as 1,325 ± 1,241 pg/ml in data set [1] (listed as Unencapsulated lentinan) and 1,325±1,241 pg/ml in data set [1] (listed as unencapsulated lentinan). Besides, the “Toxic effect to the cells” value in data set [2] is “without any detectable toxic effect”. Besides, in data set [2] (lentinan 3 μg/ml to 100 μg/ml, 3 days, FIG. 3), the “Env-specific IFN-γ level relative to stimulation with rgp160 in the absence of lentinan” value was roughly 2 fold. Moreover, the “Effect on env-specific IFN-γ production” value in data set [2] (lentinan higher than 100 μg/ml or lower than 3 μg/ml) is “smaller effect”.
